Legend:
human KCNQ4 = biological target: T1, human KCNQ4 (Homo sapiens, UniProt P56696); test: Whole-cell voltage clamp of KCNQ4 channel current in transfected CHO-K1 cells; assay type: cell-based; design: key to KCNQ4 (IDrug/IControl 100 nM): IDrug/IControl current amplitude ratio at -10 mV; details: for KCNQ4 (IDrug/IControl 100 nM): activation efficacy, 100 nM compound, -10 mV test pulse, CHO-K1 cells, mean ± SEM
T1 construct: host or cells: CHO-K1 (Chinese hamster ovary), transient transfection with Lipofectamine 2000, co-transfected with GFP
Method: (§1) The cell line used in the electrophysiological experiments was the Chinese hamster ovary cell line (CHO-K1); KCNQ cDNA was transformed into E. coli, expressed in E. coli, and then confirmed by plasmid extraction and sequencing.
(§2) CHO-K1 cells (Cell Bank of Chinese Academy of Sciences), medium formula: 50/50 DMEM/F-12 (Gibco), supplemented with 10% fetal bovine serum (FBS) (Gibco, Australia) and 2 mM L-glutamine (Invitrogen). Transfection and expression of KCNQ channels: 24 hours before transfection, cells were digested with trypsin (Sigma, China) and spread in a 6-well plate. Lipofectamine2000™ reagent (Invitrogen) was used for transfection, and the experiment was carried out according to the procedures provided. Twenty-four hours after transfection, cells were digested and seeded onto poly-L-lysine (Sigma)-soaked slides. After co-transfected with GFP (green fluorescent protein), the transfected cells were determined under a fluorescence microscope (Olympus). The human KCNQ2 plasmid (NCBI: NM_172107.4) and human KCNQ4 plasmid (NCBI: NM_004700.4) used were synthesized by Beijing Genomics Institute and constructed in the pcDNA3.1(+) vector plasmid. KCNQ2 and KCNQ4 plasmids were confirmed by plasmid extraction and sequencing after transformation into E. coli DH5α.
(§3) Whole-cell voltage clamp experiments were carried out at room temperature (23˜25° C.), where Axopatch-700B amplifier (Molecular Devices, Sunnyvale, CA) and Digidata 1440A (Molecular Devices) as digital-to-analog converter were used, pClamp 10.0 software (Molecular Devices, Sunnyvale, CA) was used for signal acquisition, the signal was filtered at 2 kHz, the sampling frequency was 10 kHz. Series resistance compensation was used and set to 60%. Pipettes were pulled from Borosilicate glass capillaries (World Precision Instruments, Sarasota, FL), and the resistance of the pipettes filled with an intracellular fluid was 3-5 MΩ. The perfusion drug delivery system was BPS-8 (ALA Scientific Instruments, Westburg, NY) with a speed of approximately 1 mL/min.
(§4) Intracellular fluid formulation for electrophysiological experiments: 145 mM KCl, 1 mM MgCl2, 5 mM EGTA, 10 mM HEPES, 5 mM MgATP (adjusted to pH=7.3 with KOH).
(§5) Extracellular fluid formulation for electrophysiological experiments: 140 mM NaCl, 5 mM KCl, 2 mM CaCl2), 1.5 mM MgCl2, 10 mM HEPES, 10 mM glucose (adjusted to pH=7.4 with NaOH).
(§6) To record the whole-cell currents of KCNQ2 and KCNQ4 channels, the cells were clamped at a holding potential of −120 mV, and then depolarized to −10 mV for a duration of 1500 ms, and the stimulation frequency was 0.1 Hz. The current amplitudes at the −10 mV test pulse before (IControl) and after (IDrug) the perfusion of the compounds were collected to determine the activation efficacy (IDrug/IControl).
(§7) A certain mass of the compound was weighed and dissolved in DMSO to prepare a 20 mM DMSO stock solution which was frozen and stored at −20° C. until use. […] This kind of concentration of DMSO has no effect on the detected KCNQ channel current. For example, to prepare 100 nM and 1 μM compound solutions, the gradient dilution method was as follows: 5 μL DMSO stock solution was first pipetted and added to 10 mL of extracellular fluid, and was dissolved evenly to obtain a 10 μM compound solution; then 1 mL of 10 μM compound solution was pipetted and added to 9 mL of extracellular fluid, dissolved evenly to obtain a 1 μM compound solution; then 1 mL of 1 μM compound was pipetted and added to 9 mL of extracellular fluid, dissolved evenly to obtain a 100 nM compound solution.
(§8) Data collection, analysis and processing were performed using pClamp10 (Molecular Devices, Sunnyvale, CA), GraphPad Prism 5 (GraphPad Software, San Diego, CA) and Excel (Microsoft Corporation) software. All data are expressed as mean±standard error. (Mean±SEM), significance analysis was performed using unpaired student's t-test. When P<0.05, the difference between the two groups was considered statistically significant. […]

human KCNQ2 = biological target: T2, human KCNQ2 (Homo sapiens, UniProt O43526); test: Whole-cell voltage clamp of KCNQ2 channel current in transfected CHO-K1 cells; assay type: cell-based; design: key to KCNQ2 (IDrug/IControl 100 nM): IDrug/IControl current amplitude ratio at -10 mV; details: for KCNQ2 (IDrug/IControl 100 nM): activation efficacy, 100 nM compound, -10 mV test pulse, CHO-K1 cells, mean ± SEM
T2 construct: host or cells: CHO-K1 (Chinese hamster ovary), transient transfection with Lipofectamine 2000, co-transfected with GFP
Method: as §1, §2, §3, §4, §5, §6, §7, §8

[1] = in vitro electrophysiological experiments

SMILES | KCNQ4 (IDrug/IControl 100 nM) (human KCNQ4) | KCNQ4 agonistic activity (in words) (human KCNQ4; [1]) | KCNQ2 (IDrug/IControl 100 nM) (human KCNQ2) | KCNQ2 agonistic activity (in words) (human KCNQ2; [1])
C#CCN(Cc1ccc(F)cc1)c1ccc(NC(=O)OC(C)(C)C)cc1 [Compound K31] | 3.06 ± 0.61 | still had good KCNQ4 agonistic activity | 1.07 ± 0.04 | lost KCNQ2 agonistic activity
C#CCN(Cc1ccccc1F)c1ccc(NC(=O)OC(C)(C)C)cc1 [Compound K32] | 2.50 ± 0.28 | – | 1.05 ± 0.02 | –
C#CCN(Cc1cccc(F)c1)c1ccc(NC(=O)OC(C)(C)C)cc1 [Compound K33] | 3.00 ± 0.18 | – | 1.06 ± 0.03 | –
C#CCN(Cc1ccc(C(C)(C)C)cc1)c1ccc(NC(=O)OC(C)(C)C)cc1 [Compound K34] | 4.40 ± 0.62 | – | 1.07 ± 0.04 | –
C#CCN(Cc1ccc(Cl)cc1)c1ccc(NC(=O)OC(C)(C)C)cc1 [Compound K35] | 3.30 ± 0.62 | – | 0.98 ± 0.03 | –
C#CCN(Cc1ccc(Br)cc1)c1ccc(NC(=O)OC(C)(C)C)cc1 [Compound K36] | 3.50 ± 0.28 | – | 1.05 ± 0.03 | –
C#CCN(Cc1ccc(I)cc1)c1ccc(NC(=O)OC(C)(C)C)cc1 [Compound K37] | 3.28 ± 0.21 | – | 1.02 ± 0.04 | –
C#CCN(Cc1ccc([N+](=O)[O-])cc1)c1ccc(NC(=O)OC(C)(C)C)cc1 [Compound K38] | 1.66 ± 0.19 | – | 0.96 ± 0.01 | –
C#CCN(Cc1ccc(F)c(F)c1)c1ccc(NC(=O)OC(C)(C)C)cc1 [Compound K39] | 1.46 ± 0.02 | – | 1.10 ± 0.02 | –
C#CCN(Cc1ccc(F)c(C#N)c1)c1ccc(NC(=O)OC(C)(C)C)cc1 [Compound K40] | 1.26 ± 0.16 | – | 0.97 ± 0.02 | –
C#CCN(Cc1ccc(F)c(C(F)(F)F)c1)c1ccc(NC(=O)OC(C)(C)C)cc1 [Compound K41] | 1.69 ± 0.19 | – | 1.03 ± 0.02 | –
C#CCN(Cc1ccc(F)c([N+](=O)[O-])c1)c1ccc(NC(=O)OC(C)(C)C)cc1 [Compound K42] | 1.35 ± 0.08 | – | 1.02 ± 0.02 | –
C#CCN(Cc1ccc(Br)c(F)c1)c1ccc(NC(=O)OC(C)(C)C)cc1 [Compound K43] | 2.72 ± 0.38 | – | 0.98 ± 0.00 | –

— patent US20250122148A1, “HIGH-SELECTIVITY KCNQ4 POTASSIUM CHANNEL AGONIST, PREPARATION METHOD THEREFOR AND USE THEREOF” (SHANGHAI INSTITUTE OF MATERIA MEDICA, CHINESE ACADEMY OF …, priority 2022, published 2025)
